Assay results from patent publication US20250206761A1, “HALOINDOLE MACROCYCLIC COMPOUNDS FOR THE TREATMENT OF CANCER” (Hoffmann-La Roche Inc., priority 2022, published 2025).

What was measured:
[1] = system: AGS (ATCC-CRL-1739) cells; experiment: Cell viability assay, G12D (AGS); type: cell-based, human; details: Homo sapiens, KRAS cell viability, 72 hrs, Cell Counting Kit-8
Summary of the method: (§1)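 Cells seeded at 5,000/well (NCI-H358) or 2,000/well (AGS, SW620), treated next day at 0.5% final DMSO for 72 h. Viability read by CCK-8 (OD450 minus OD650) after 2 h; IC50 from 4-parameter sigmoidal fit.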

SW620 (ATCC-CCL-227) = experiment: Cell viability assay, G12V (SW620); type: cell-based, human; details: Homo sapiens, SW-620; KRAS cell viability, SW620, 72 hrs, Cell Counting Kit-8
Summary of the method: as §1

KRAS G12C-BRAF complex = KRAS G12C-BRAF complex (Homo sapiens (Human), UniProt P01116+P62937, G12C); experiment: KRAS-BRAF with CYPA (500 nM) interaction assay (TR-FRET), G12C; type: biochemical
[2] = molecular target: KRAS G12D binding to BRAF (Homo sapiens (Human), UniProt P01116+P62937, G12D); experiment: KRAS-BRAF with CYPA (500 nM) interaction assay (TR-FRET), G12D; type: biochemical
[3] = system: phosphorylation of ERK, KRAS G12C in NCJ-H358 cells; experiment: pERK inhibition assay, KRAS G12C; type: cell-based, human; details: Homo sapiens, 4 hours
Summary of the method: (§2)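 Cells in RPMI-1640 with 10% FBS were plated overnight (NCJ-H358 30,000, AGS 20,000, SW620 30,000 cells/well), then exposed to compounds in 0.5% DMSO for 4 h. Fixed, methanol-permeabilized cells were probed for pERK by HRP-based in-cell ELISA with TMB, OD450; IC50 from 4-parameter sigmoidal fit.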

[4] = system: phosphorylation of ERK, KRAS G12D in AGS cells; experiment: pERK inhibition assay, KRAS G12D; type: cell-based, human; details: Homo sapiens, 4 hours
Summary of the method: as §2

Sequence of KRAS G12D binding to BRAF (P01116-2 other isoform, or with tags, fused parts or gaps G12D): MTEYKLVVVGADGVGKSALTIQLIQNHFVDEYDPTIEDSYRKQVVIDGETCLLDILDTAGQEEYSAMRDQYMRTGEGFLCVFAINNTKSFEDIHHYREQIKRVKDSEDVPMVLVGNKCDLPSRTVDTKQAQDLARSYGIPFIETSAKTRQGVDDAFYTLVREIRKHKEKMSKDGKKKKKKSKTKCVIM
Sequence of KRAS G12D binding to BRAF (P62937 whole entry): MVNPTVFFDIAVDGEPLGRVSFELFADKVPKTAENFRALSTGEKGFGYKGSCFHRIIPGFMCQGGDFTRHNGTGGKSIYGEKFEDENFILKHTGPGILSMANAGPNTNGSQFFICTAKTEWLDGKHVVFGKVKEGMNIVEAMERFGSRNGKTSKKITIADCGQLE
Sequence of KRAS G12C-BRAF complex (P01116-2 other isoform, or with tags, fused parts or gaps G12C): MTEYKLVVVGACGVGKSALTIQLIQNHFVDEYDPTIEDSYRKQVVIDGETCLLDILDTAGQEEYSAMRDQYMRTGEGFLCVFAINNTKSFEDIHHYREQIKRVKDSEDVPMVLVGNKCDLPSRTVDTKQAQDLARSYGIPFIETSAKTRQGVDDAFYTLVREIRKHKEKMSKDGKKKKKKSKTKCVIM
Sequence of KRAS G12C-BRAF complex (P62937 whole entry): as the sequence (P62937 whole entry) above

| Structure (SMILES) | IC50 [1] [nM] | IC50 (SW620 (ATCC-CCL-227)) [nM] | IC50 (KRAS G12C-BRAF complex) [nM] | IC50 [2] [nM] | IC50 [3] [nM] | IC50 [4] [nM] |
| --- | --- | --- | --- | --- | --- | --- |
| CO[C@@H](C)c1ncc(N2CCN(C)CC2)cc1-c1c2c3cc(c(F)cc3n1CC(F)(F)F)-c1csc(n1)C[C@H](NC(=O)[C@H](C(C)C)N1CCC[C@@]3(CCN(C(=O)[C@H](F)Cl)C3)C1=O)C(=O)N1CCC[C@H](N1)C(=O)OCC(C)(C)C2 (single isomer, unassigned) [Example 16] | 2650 | 22 | 100 | > 10000 | 1 | 19 |
| CO[C@@H](C)c1ncc(N2CCN(C)CC2)cc1-c1c2c3c(F)c(ccc3n1CC(F)(F)F)-c1csc(n1)C[C@H](NC(=O)[C@H](C(C)C)N1CCCC3(CCN(C(=O)[C@H](F)Cl)CC3)C1=O)C(=O)N1CCC[C@H](N1)C(=O)OCC(C)(C)C2 (atropisomer, axis not shown; (M)) [Example 20, (2S)-2-[9-[(2R)-2-chloro-2-fluoro-acetyl]-1-oxo-2,9-diazaspiro[5.5]undecan-2-yl]-N-[(7S,13S)-25-fluoro-(20M)-20-[2-[(1S)-1-methoxyethyl]-5-(4-methylpiperazin-1-yl)-3-pyridyl]-17,17-dimethyl-8,14-dioxo-21-(2,2,2-trifluoroethyl)-15-oxa-4-thia-9,21,27,28-tetrazapentacyclo[17.5.2.1^2,5.1^9,13.0^22,26]octacosa-1(25),2,5(28),19,22(26),23-hexaen-7-yl]-3-methyl-butanamide] | 745 | 66 | 148 | 1240 | 5 | 98 |
| CO[C@@H](C)c1ncc(N2CCN(C)CC2)cc1-c1c2c3cc(c(F)cc3n1CC(F)(F)F)-c1csc(n1)C[C@H](NC(=O)[C@H](C(C)C)N1CCCC3(CN(C(=O)[C@H](F)Cl)C3)C1=O)C(=O)N1CCC[C@H](N1)C(=O)OCC(C)(C)C2 (atropisomer, axis not shown; (M)) [Example 11, (2S)-2-[2-[(2R)-2-chloro-2-fluoro-acetyl]-5-oxo-2,6-diazaspiro[3.5]nonan-6-yl]-N-[(7S,13S)-24-fluoro-(20M)-20-[2-[(1S)-1-methoxyethyl]-5-(4-methylpiperazin-1-yl)-3-pyridyl]-17,17-dimethyl-8,14-dioxo-21-(2,2,2-trifluoroethyl)-15-oxa-4-thia-9,21,27,28-tetrazapentacyclo[17.5.2.1^2,5.1^9,13.0^22,26]octacosa-1(25),2,5(28),19,22(26),23-hexaen-7-yl]-3-methyl-butanamide] | 1880 | 29 | 45 | > 10000 | < 1 | 27 |
| CCn1c(-c2cc(N3CCOCC3)cnc2[C@H](C)OC)c2c3cc(c(F)cc31)-c1csc(n1)C[C@H](NC(=O)[C@H](C(C)C)N(C)C(=O)C1(F)CCN(C(=O)[C@H](F)Cl)CC1)C(=O)N1CCC[C@H](N1)C(=O)OCC(C)(C)C2 (atropisomer, axis not shown; (M)) [Example 54, 1-[(2R)-2-chloro-2-fluoro-acetyl]-N-[(1S)-1-[[(7S,13S)-21-ethyl-24-fluoro-(20M)-20-[2-[(1S)-1-methoxyethyl]-5-morpholino-3-pyridyl]-17,17-dimethyl-8,14-dioxo-15-oxa-4-thia-9,21,27,28-tetrazapentacyclo[17.5.2.1^2,5.1^9,13.0^22,26]octacosa-1(25),2,5(28),19,22(26),23-hexaen-7-yl]carbamoyl]-2-methyl-propyl]-4-fluoro-N-methyl-piperidine-4-carboxamide] | 72 | 13 | 19 | 303 | 2 | 25 |
| CCn1c(-c2cc(N3CCOCC3)cnc2[C@H](C)OC)c2c3cc(c(F)cc31)-c1csc(n1)C[C@H](NC(=O)[C@H](C(C)C)N(C)C(=O)[C@H]1CCN(C(=O)[C@H](F)Cl)C1)C(=O)N1CCC[C@H](N1)C(=O)OCC(C)(C)C2 (atropisomer, axis not shown; (M)) [Example 55, (3S)-1-[(2R)-2-chloro-2-fluoro-acetyl]-N-[(1S)-1-[[(7S,13S)-21-ethyl-24-fluoro-(20M)-20-[2-[(1S)-1-methoxyethyl]-5-morpholino-3-pyridyl]-17,17-dimethyl-8,14-dioxo-15-oxa-4-thia-9,21,27,28-tetrazapentacyclo[17.5.2.1^2,5.1^9,13.0^22,26]octacosa-1(25),2,5(28),19,22(26),23-hexaen-7-yl]carbamoyl]-2-methyl-propyl]-N-methyl-pyrrolidine-3-carboxamide] | 848 | 155 | 40 | > 10000 | 6 | 106 |
| CCn1c(-c2cc(N3CCOCC3)cnc2[C@H](C)OC)c2c3cc(c(F)cc31)-c1csc(n1)C[C@H](NC(=O)[C@H](C(C)C)N1CC[C@]3(CCN(C(=O)[C@H](F)Cl)C3)C1=O)C(=O)N1CCC[C@H](N1)C(=O)OCC(C)(C)C2 (atropisomer, axis not shown; (M)) [Example 51, (2S)-2-[(5S)-7-[(2R)-2-chloro-2-fluoro-acetyl]-1-oxo-2,7-diazaspiro[4.4]nonan-2-yl]-N-[(7S,13S)-21-ethyl-24-fluoro-(20M)-20-[2-[(1S)-1-methoxyethyl]-5-morpholino-3-pyridyl]-17,17-dimethyl-8,14-dioxo-15-oxa-4-thia-9,21,27,28-tetrazapentacyclo[17.5.2.1^2,5.1^9,13.0^22,26]octacosa-1(25),2,5(28),19,22(26),23-hexaen-7-yl]-3-methyl-butanamide] | 2500 | 52 | 74 | > 10000 | 2 | 62 |
| CCn1c(-c2cc(N3CCN(CC(F)(F)F)CC3)cnc2[C@H](C)OC)c2c3cc(c(F)cc31)-c1csc(n1)C[C@H](NC(=O)[C@H](C(C)C)N(C)C(=O)C1(F)CCN(C(=O)[C@H](F)Cl)CC1)C(=O)N1CCC[C@H](N1)C(=O)OCC(C)(C)C2 (atropisomer, axis not shown; (M)) [Example 49, 1-[(2R)-2-chloro-2-fluoro-acetyl]-N-[(1S)-1-[[(7S,13S)-21-ethyl-24-fluoro-(20M)-20-[2-[(1S)-1-methoxyethyl]-5-[4-(2,2,2-trifluoroethyl)piperazin-1-yl]-3-pyridyl]-17,17-dimethyl-8,14-dioxo-15-oxa-4-thia-9,21,27,28-tetrazapentacyclo[17.5.2.1^2,5.1^9,13.0^22,26]octacosa-1(25),2,5(28),19,22(26),23-hexaen-7-yl]carbamoyl]-2-methyl-propyl]-4-fluoro-N-methyl-piperidine-4-carboxamide] | 73 | 42 | 15 | 444 | 3 | 65 |
| CO[C@@H](C)c1ncc(N2CCN(C)CC2)cc1-c1c2c3cc(c(C)cc3n1CC(F)(F)F)-c1csc(n1)C[C@H](NC(=O)[C@H](C(C)C)N(C)C(=O)C1(F)CCN(C(=O)[C@H](F)Cl)CC1)C(=O)N1CCC[C@H](N1)C(=O)OCC(C)(C)C2 (atropisomer, axis not shown; (M)) [Example 9, 1-[(2R)-2-chloro-2-fluoro-acetyl]-4-fluoro-N-[(1S)-1-[[(7S,13S)-(20M)-20-[2-[(1S)-1-methoxyethyl]-5-(4-methylpiperazin-1-yl)-3-pyridyl]-17,17,24-trimethyl-8,14-dioxo-21-(2,2,2-trifluoroethyl)-15-oxa-4-thia-9,21,27,28-tetrazapentacyclo[17.5.2.1^2,5.1^9,13.0^22,26]octacosa-1(25),2,5(28),19,22(26),23-hexaen-7-yl]carbamoyl]-2-methyl-propyl]-N-methyl-piperidine-4-carboxamide] | 505 | 28 | 176 | > 10000 | 3 | 23 |
| CO[C@@H](C)c1ncc(N2CCN(C)CC2)cc1-c1c2c3cc(c(F)cc3n1CC(F)(F)F)-c1cc(O)cc(c1)C[C@H](NC(=O)[C@H](C(C)C)N(C)C(=O)[C@H]1CCN(C(=O)[C@H](F)Cl)C1)C(=O)N1CCC[C@H](N1)C(=O)OCC(C)(C)C2 (atropisomer, axis not shown; (M)) [Example 8, (3S)-1-[(2R)-2-chloro-2-fluoro-acetyl]-N-[(1S)-1-[[(8S,14S)-25-fluoro-4-hydroxy-(21M)-21-[2-[(1S)-1-methoxyethyl]-5-(4-methylpiperazin-1-yl)-3-pyridyl]-18,18-dimethyl-9,15-dioxo-22-(2,2,2-trifluoroethyl)-16-oxa-10,22,28-triazapentacyclo[18.5.2.1^2,6.1^10,14.0^23,27]nonacosa-1(26),2,4,6(29),20,23(27),24-heptaen-8-yl]carbamoyl]-2-methyl-propyl]-N-methyl-pyrrolidine-3-carboxamide] | 1560 | 175 | 3 | 85 | 2 | 90 |
